Activity calls are given as the source filed them. No rule for the calls is given here.
Test system: rodent carcinogenicity bioassays, tumor incidence
Assay: CCRIS carcinogenicity studies
Outline: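 NCI-built, expert-reviewed records of carcinogenicity and related test outcomes (mutagenicity, tumor promotion/inhibition) compiled from published and report sources, historical span 1985-2011, not updated.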

Measured: carcinogen call

CC[C@H]1CCC[C@H](O[C@H]2CC[C@H](N(C)C)[C@@H](C)O2)[C@@H](C)C(=O)C2=C[C@@H]3[C@@H](C=C[C@@H]4C[C@@H](O[C@@H]5O[C@@H](C)[C@H](OC)[C@@H](OC)[C@H]5OC)C[C@@H]34)[C@@H]2CC(=O)O1
inactive: Species: MOUSE, Strain/Sex: CD-1/FEMALE, Route: ORAL, Dose: 0, 0.0025, 0.008, 0.024, 0.0008% IN DIET FOR 18 MO (STUDY DURATION: 18 MO), Dose: 0, 0.0025, 0.008, 0.024, 0.0008% IN DIET FOR 18 MO (STUDY DURATION: 18 MO) inactive; negative | Species: MOUSE, Strain/Sex: CD-1/FEMALE, Route: ORAL, Dose: 0.0025, 0.008, 0.036 % IN DIET FOR 18 MO (STUDY DURATION: 18 MO), Dose: 0.0025, 0.008, 0.036 % IN DIET FOR 18 MO (STUDY DURATION: 18 MO) inactive; negative | Species: MOUSE, Strain/Sex: CD-1/MALE, Route: ORAL, Dose: 0, 0.0008, 0.0025, 0.008, 0.024, 0.036% IN DIET FOR 18 MO (STUDY DURATION: 18 MO), Dose: 0, 0.0008, 0.0025, 0.008, 0.024, 0.036% IN DIET FOR 18 MO (STUDY DURATION: 18 MO) inactive; negative | Species: MOUSE, Strain/Sex: CD-1/MALE, Route: ORAL, Dose: 0.0025, 0.008, 0.036 % IN DIET FOR 18 MO (STUDY DURATION: 18 MO), Dose: 0.0025, 0.008, 0.036 % IN DIET FOR 18 MO (STUDY DURATION: 18 MO) inactive; negative | Species: RAT, Strain/Sex: F344/FEMALE, Route: ORAL, Dose: 0.005, 0.02, 0.05, 0.1% IN DIET FOR 24 MO (STUDY DURATION: 24 MO), Dose: 0.005, 0.02, 0.05, 0.1% IN DIET FOR 24 MO (STUDY DURATION: 24 MO) inactive; negative | Species: RAT, Strain/Sex: F344/MALE, Route: ORAL, Dose: 0.005, 0.02, 0.05, 0.1 % IN DIET FOR 24 MO (STUDY DURATION: 24 MO), Dose: 0.005, 0.02, 0.05, 0.1 % IN DIET FOR 24 MO (STUDY DURATION: 24 MO) inactive; negative

Clc1ccc2c(c1)C(c1ccccc1)=NCc1nncn1-2
inactive: Species: MOUSE, Strain/Sex: B6C3F1/FEMALE, Route: ORAL, Dose: 0, 0.8, 3, 10 MG/KG IN DIET FOR 2 YR (STUDY DURATION: 2 YR), Dose: 0, 0.8, 3, 10 MG/KG IN DIET FOR 2 YR (STUDY DURATION: 2 YR) inactive; negative | Species: MOUSE, Strain/Sex: B6C3F1/FEMALE, Route: ORAL, Dose: 0, 0.8, 3, 10 MG/KG/D IN DIET FOR 2 YR (STUDY DURATION: 2 YR), Dose: 0, 0.8, 3, 10 MG/KG/D IN DIET FOR 2 YR (STUDY DURATION: 2 YR) inactive; negative | Species: MOUSE, Strain/Sex: B6C3F1/MALE, Route: ORAL, Dose: 0, 0.8, 3, 10 MG/KG IN DIET FOR 2 YR (STUDY DURATION: 2 YR), Dose: 0, 0.8, 3, 10 MG/KG IN DIET FOR 2 YR (STUDY DURATION: 2 YR) inactive; negative | Species: MOUSE, Strain/Sex: B6C3F1/MALE, Route: ORAL, Dose: 0, 0.8, 3, 10 MG/KG/D IN DIET FOR 2 YR (STUDY DURATION: 2 YR), Dose: 0, 0.8, 3, 10 MG/KG/D IN DIET FOR 2 YR (STUDY DURATION: 2 YR) inactive; negative | Species: RAT, Strain/Sex: SPRAGUE-DAWLEY/FEMALE, Route: ORAL, Dose: 0, 0.5, 2, 10 MG/KG IN DIET FOR 2 YR (STUDY DURATION: 2 YR), Dose: 0, 0.5, 2, 10 MG/KG IN DIET FOR 2 YR (STUDY DURATION: 2 YR) inactive; negative | Species: RAT, Strain/Sex: SPRAGUE-DAWLEY/MALE, Route: ORAL, Dose: 0, 0.5, 2, 10 MG/KG IN DIET FOR 2 YR (STUDY DURATION: 2 YR), Dose: 0, 0.5, 2, 10 MG/KG IN DIET FOR 2 YR (STUDY DURATION: 2 YR) inactive; negative | Species: RAT, Strain/Sex: STRAIN-CD/FEMALE, Route: ORAL, Dose: 0, 0.5, 2, 10 MG/KG/D IN DIET FOR 2 YR (STUDY DURATION: 2 YR), Dose: 0, 0.5, 2, 10 MG/KG/D IN DIET FOR 2 YR (STUDY DURATION: 2 YR) inactive; negative | Species: RAT, Strain/Sex: STRAIN-CD/MALE, Route: ORAL, Dose: 0, 0.5, 2, 10 MG/KG/D IN DIET FOR 2 YR (STUDY DURATION: 2 YR), Dose: 0, 0.5, 2, 10 MG/KG/D IN DIET FOR 2 YR (STUDY DURATION: 2 YR) inactive; negative

CN(C)N
active: Species: MOUSE, Route: ORAL, Tumor Site: Type of Lesion: LUNG, BLOOD VESSELS, LIVER, KIDNEY, Tumor Site: Type of Lesion: LUNG, BLOOD VESSELS, LIVER, KIDNEY active; positive
inactive: Species: HAMSTER, Strain/Sex: SYRIAN/FEMALE, Route: SUBCUTANEOUS, Dose: 0, 8, 17, 35 MG/KG BW IN 0.9% SALINE 1/WK FOR LIFE (STUDY DURATION: LIFE SPAN), Dose: 0, 8, 17, 35 MG/KG BW IN 0.9% SALINE 1/WK FOR LIFE (STUDY DURATION: LIFE SPAN) inactive; negative | Species: HAMSTER, Strain/Sex: SYRIAN/MALE, Route: SUBCUTANEOUS, Dose: 0, 8, 17, 35 MG/KG BW IN 0.9% SALINE 1/WK FOR LIFE (STUDY DURATION: LIFE SPAN), Dose: 0, 8, 17, 35 MG/KG BW IN 0.9% SALINE 1/WK FOR LIFE (STUDY DURATION: LIFE SPAN) inactive; negative

C=CC(=O)OCC(CC)CCCC (stereo not drawn)
inactive: Species: MOUSE, Strain/Sex: NMRI/MALE, Route: DERMAL, Dose: 0, 21.5, 43, 85% (W/W) IN ACETONE 3/WK FOR 2 YR (STUDY DURATION: 2 YR), Dose: 0, 21.5, 43, 85% (W/W) IN ACETONE 3/WK FOR 2 YR (STUDY DURATION: 2 YR) inactive; negative

From PubChem BioAssay AID1259411 (Chemical Carcinogenesis Research Information System (CCRIS), 2018)
